How the values were obtained:
[1] = system: GDSC cell line panel; assay: GDSC cell line panel drug activity (IC50, Cell Titer Glo measurement of ATP); assay type: cell-based; details: GDSC triple negative breast cancer lines (21); p<7E-10
Experimental: (§1) To determine reproducibility across institutes and assay types, we tested a selected set of NCI-60-screened compounds for activity in the GDSC cell line panel (Table 1). Drug data reproducibility may be affected by potential sources of data divergence such as assay type and duration for drug treatment. Noting that the GDSC and the NCI/DTP used different assays to determine their IC50 values (Cell Titer Glo measurements of ATP at 72 hours post-treatment versus sulforhodamine B measurement of total protein at 48 hours post-treatment), we compared 19 drugs referenced by their NSCs (National Service Center identifiers) and associated with a range of mechanisms of action types. The drugs with the strongest correlations were oxyphenisatin acetate (Acetalax) (FIG. 5a, R=0.80, p=1.1×10^−10, N=43) and bisacodyl (FIG. 5b, R=0.84, p=9.0×10^−13, N=44). These FDA-approved laxatives lacked pre-existing data in the CTRP, CCLE and GDSC.
In this work, the drugs were assessed in a different institution using a different assay using 1,080 cell lines, including 21 triple negative breast cancers (FIG. 8A, B). […]
DETERMINATION OF PROSPECTIVE TRIPLE NEGATIVE BREAST CANCERS. Transcript expression levels of ERBB2, ESR1, ESR2 and PGR (HER2, estrogen receptor and progesterone receptor) were assessed by GDSC using the Affymetrix Human Genome U219 Array and accessed in CellMinerCDB. […]

[2] = system: NCI-60 cell lines; assay: NCI-60 compound activity (z score of GI50, sulforhodamine B total protein assay, DTP); assay type: cell-based; details: for Activity (Z score) against breast cancer cell lines: 4 of 5 tested breast cancer cell lines (MCF7, HS578T, BT549, T47D); for Anticancer activity compared with all available (~178) FDA-approved drugs: HS 578T and BT-549 cell lines, FIG. 7B; for Activity (Z score) pattern against NCI-60 cell lines: certain breast cancer, colorectal cancer and ovarian cancer cell lines, FIG. 6; for Activity (Z score) against ovarian cancer cell lines: four of seven ovarian cancer cell lines (OVCAR-3, OVCAR-4, OVCAR-8, NCI-ADR-RES); for Effectiveness compared with 13 approved breast cancer drugs: triple negative breast cancer cell lines HS 578T and BT-549 (two of three NCI-60 TNBC lines), FIG. 7A; for Activity (Z score) against colorectal cell lines: two of seven colorectal cell lines (COLO205 and HCC2998)
Experimental: as §1
Acetalax and bisacodyl activities against a number of NCI-60 cell lines were obtained.
NCI-60 drug activity, molecular profiling, and annotation data was obtained from CellMiner (Database Version 2.1). […] Detailed information about CellMiner data preparation is publically available for example, in Reinhold, W. C. et al., Cancer Res. 72:3499-3511 (2012), Reinhold, W. C. et al., Cancer Res. 77:601-612 (2017), Abaan, O. D. et al., Cancer Res. 73:4372-4382 (2013), and Varma, S. et al., PloS One 9: e92047 (2014), as well as being documented within CellMiner.
COMPOUND ACTIVITY. Compound activity is indicated as a standardized, ‘z-score’ value derived from measurement of the cell line-specific 50% growth-inhibitory (GIS0) concentration using the sulforhodamine B total protein cytotoxicity assay generated by the Developmental Therapeutics Program (dtp.cancer.gov). In particular, for each compound, the mean and standard deviation of −log 10 [molar GI50] values over the NCI-60 lines are used to center and scale the data.

| Compound | Activity compared with the oncology drugs tested [1] | Activity (Z score) against breast cancer cell lines [2] | Anticancer activity compared with all available (~178) FDA-approved drugs [2] | Activity (Z score) pattern against NCI-60 cell lines [2] | Activity (Z score) against ovarian cancer cell lines [2] | Effectiveness compared with 13 approved breast cancer drugs [2] | Activity (Z score) against colorectal cell lines [2] |
| --- | --- | --- | --- | --- | --- | --- | --- |
| CC(=O)Oc1ccc(C(c2ccc(OC(C)=O)cc2)c2ccccn2)cc1 [Bisacodyl] | more active than any of the oncology drugs | robust activity | superior anticancer activity | strong efficacy | robust activity | more effective | robust activity |
| CC(=O)Oc1ccc(C2(c3ccc(OC(C)=O)cc3)C(=O)Nc3ccccc32)cc1 [Oxyphenisatin acetate (Acetalax), Oxyphenisatin acetate] | more active than any of the oncology drugs | robust activity | superior anticancer activity | strong efficacy | robust activity | more effective | robust activity |

— patent US12714691B2, “Method of treating triple-negative breast cancer” (THE UNITED STATES OF AMERICA, AS REPRESENTED BY THE …, priority 2018, dated 2026)
